Measured values as given in ChEMBL document CHEMBL1201862, “PubChem BioAssay data set” (2004).
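Where inhibition never reached the appropriate level, the endpoint shown equals the highest concentration tested. Otherwise, values were interpolated linearly from a five-concentration, 48-hour dose response in 96-well plates. GI50 = concentration required for 50% inhibition of growth.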 Calls of active or inactive are those of the source. No stated cut-off is given here; in the data, active = GI50 up to about 1.1 µM and inactive = higher.

Legend:
Experiment in all cases: inhibition of tumour cell growth, NCI panel, 48 h
786-0 = test system: 786-0
A498 = test system: A498
A549 = test system: A549
ACHN = test system: ACHN
CAKI-1 = test system: CAKI-1
CCRF-CEM = test system: CCRF-CEM
COLO 205 = test system: COLO 205
DMS-114 = test system: DMS-114
DMS-273 = test system: DMS-273
EKVX = test system: EKVX
HCC 2998 = test system: HCC 2998
HCT-116 = test system: HCT-116
HCT-15 = test system: HCT-15
HL-60 = test system: HL-60
HOP-18 = test system: HOP-18
HOP-62 = test system: HOP-62
HOP-92 = test system: HOP-92
HT-29 = test system: HT-29
IGROV-1 = test system: IGROV-1
K562 = test system: K562
KM-20L2 = test system: KM-20L2
KM12 = test system: KM12
LOX IMVI = test system: LOX IMVI
LXFL 529 = test system: LXFL 529
M14 = test system: M14
M19-MEL = test system: M19-MEL
MOLT-4 = test system: MOLT-4
Malme-3M = test system: Malme-3M
NCI-H226 = test system: NCI-H226
NCI-H23 = test system: NCI-H23
NCI-H460 = test system: NCI-H460
NCI-H522 = test system: NCI-H522
OVCAR-3 = test system: OVCAR-3
OVCAR-4 = test system: OVCAR-4
OVCAR-5 = test system: OVCAR-5
OVCAR-8 = test system: OVCAR-8
RPMI-8226 = test system: RPMI-8226
RXF 393 = test system: RXF 393
SF-268 = test system: SF-268
SF-295 = test system: SF-295
SF-539 = test system: SF-539
SK-MEL-28 = test system: SK-MEL-28
SK-MEL-2 = test system: SK-MEL-2
SK-MEL-5 = test system: SK-MEL-5
SK-OV-3 = test system: SK-OV-3
SN12C = test system: SN12C
SNB-19 = test system: SNB-19
SNB-75 = test system: SNB-75
SNB-78 = test system: SNB-78
SR = test system: SR
SW-620 = test system: SW-620
TK-10 = test system: TK-10
U-251 = test system: U-251
UACC-257 = test system: UACC-257
UACC-62 = test system: UACC-62
UO-31 = test system: UO-31
XF498 = test system: XF498
DLD-1 = test system: DLD-1

## C=C1C(=O)OC2/C=C(\C)C(OC(C)=O)C3OC3C(C)(O)CC(OC(=O)/C(C)=C/C)C12 (centres undefined)
786-0
  GI50: 4.73 µM (inactive)
A498
  GI50: 15.8 µM (inactive)
A549
  GI50: 18.7 µM (inactive)
ACHN
  GI50: 13.5 µM (inactive)
CAKI-1
  GI50: 2.38 µM (inactive)
CCRF-CEM
  GI50: 2.81 µM (inactive)
COLO 205
  GI50: 3.86 µM (inactive)
DMS-114
  GI50: 5.45 µM (inactive)
DMS-273
  GI50: 24.5 µM (inactive)
EKVX
  GI50: 18.3 µM (inactive)
HCC 2998
  GI50: 8.38 µM (inactive)
HCT-116
  GI50: 2.16 µM (inactive)
HCT-15
  GI50: 12.8 µM
HL-60
  GI50: 2.51 µM (inactive)
HOP-18
  GI50: 11.3 µM (inactive)
HOP-62
  GI50: 19.1 µM (inactive)
HOP-92
  GI50: 5.52 µM (inactive)
HT-29
  GI50: 14.9 µM (inactive)
IGROV-1
  GI50: 16.9 µM (inactive)
K562
  GI50: 4.35 µM (inactive)
KM-20L2
  GI50: 4.46 µM (inactive)
KM12
  GI50: 14.7 µM (inactive)
LOX IMVI
  GI50: 15.3 µM (inactive)
LXFL 529
  GI50: 2.44 µM (inactive)
M14
  GI50: 4.65 µM (inactive)
M19-MEL
  GI50: 8.49 µM (inactive)
MOLT-4
  GI50: 5.05 µM (inactive)
Malme-3M
  GI50: 8.69 µM (inactive)
NCI-H226
  GI50: 10 µM (inactive)
NCI-H23
  GI50: 12.8 µM (inactive)
NCI-H460
  GI50: 15.7 µM (inactive)
NCI-H522
  GI50: 1.62 µM (inactive)
OVCAR-3
  GI50: 3.9 µM (inactive)
OVCAR-4
  GI50: 33.8 µM (inactive)
OVCAR-5
  GI50: 17.4 µM (inactive)
OVCAR-8
  GI50: 9.93 µM (inactive)
RPMI-8226
  GI50: 4.91 µM (inactive)
RXF 393
  GI50: 3.85 µM (inactive)
SF-268
  GI50: 10.9 µM (inactive)
SF-295
  GI50: 19.1 µM (inactive)
SF-539
  GI50: 3.67 µM (inactive)
SK-MEL-28
  GI50: 4.95 µM (inactive)
SK-MEL-2
  GI50: 6.59 µM (inactive)
SK-MEL-5
  GI50: 13.7 µM (inactive)
SK-OV-3
  GI50: 20.1 µM (inactive)
SN12C
  GI50: 20 µM (inactive)
SNB-19
  GI50: 18.7 µM (inactive)
SNB-75
  GI50: 21.9 µM (inactive)
SNB-78
  GI50: 8.3 µM (inactive)
SR
  GI50: 2.96 µM (inactive)
SW-620
  GI50: < 0.01 µM (active)
TK-10
  GI50: 11.9 µM (inactive)
U-251
  GI50: 12.1 µM (inactive)
UACC-257
  GI50: 14.7 µM (inactive)
UACC-62
  GI50: 11 µM (inactive)
UO-31
  GI50: 11 µM (inactive)
XF498
  GI50: 6.87 µM (inactive)

## OCCNCCOc1ccc(/C(=C(/Cl)c2ccccc2)c2ccccc2)cc1
786-0
  GI50: 9.68 µM (inactive)
A549
  GI50: 0.34 µM (active)
CAKI-1
  GI50: 12.4 µM (inactive)
CCRF-CEM
  GI50: 1.92 µM (inactive)
COLO 205
  GI50: 3.56 µM (inactive)
DLD-1
  GI50: 12.1 µM (inactive)
DMS-114
  GI50: 15.2 µM (inactive)
EKVX
  GI50: 14.7 µM (inactive)
HCT-116
  GI50: 4.99 µM (inactive)
HCT-15
  GI50: 5.58 µM
HL-60
  GI50: 0.729 µM (active)
HOP-18
  GI50: 19.3 µM (inactive)
HOP-62
  GI50: 16.7 µM (inactive)
HT-29
  GI50: 1.11 µM (active)
IGROV-1
  GI50: 10.5 µM (inactive)
K562
  GI50: 2.85 µM (inactive)
KM-20L2
  GI50: 2.47 µM (inactive)
KM12
  GI50: 0.544 µM (active)
LOX IMVI
  GI50: 3.49 µM (inactive)
LXFL 529
  GI50: 6.92 µM (inactive)
M14
  GI50: 1.87 µM (inactive)
M19-MEL
  GI50: 10.9 µM (inactive)
MOLT-4
  GI50: 1.69 µM (inactive)
Malme-3M
  GI50: 0.246 µM (active)
NCI-H226
  GI50: 21.6 µM (inactive)
NCI-H23
  GI50: 14.7 µM (inactive)
NCI-H460
  GI50: 3.4 µM (inactive)
NCI-H522
  GI50: 14 µM (inactive)
OVCAR-3
  GI50: 12.1 µM (inactive)
OVCAR-4
  GI50: 16.5 µM (inactive)
OVCAR-5
  GI50: 15.1 µM (inactive)
OVCAR-8
  GI50: 13.5 µM (inactive)
RPMI-8226
  GI50: 4.42 µM (inactive)
RXF 393
  GI50: 0.637 µM (active)
SF-295
  GI50: 15.2 µM (inactive)
SF-539
  GI50: 13.6 µM (inactive)
SK-MEL-28
  GI50: 1.14 µM (inactive)
SK-MEL-2
  GI50: 13.2 µM (inactive)
SK-MEL-5
  GI50: 6.25 µM (inactive)
SK-OV-3
  GI50: 3 µM (inactive)
SN12C
  GI50: 5.3 µM (inactive)
SNB-19
  GI50: 13.9 µM (inactive)
SNB-75
  GI50: 2.37 µM (inactive)
SNB-78
  GI50: 8.51 µM (inactive)
SR
  GI50: 3.34 µM (inactive)
SW-620
  GI50: 4.44 µM (inactive)
TK-10
  GI50: 0.408 µM (active)
U-251
  GI50: 8.43 µM (inactive)
UACC-257
  GI50: 2.21 µM (inactive)
UACC-62
  GI50: 12.5 µM (inactive)
UO-31
  GI50: 9.48 µM (inactive)
XF498
  GI50: 2.9 µM (inactive)
